Data on 5 molecules can be found in patent publication US7148243B2, “Antivirals” (Medivir AB, priority 1998, dated 2006).

Where “and” joins values, the source holds several entries; their conditions need not be identical. Identical values can stand only once. Like-named read-outs stand apart in the source and are kept apart here.

Data set [1] can be described thus: Release of mother compound from orally administered prodrug, plasma level (Biological Example 4). The data set is classed as in vivo, Sprague Dawley rats. To be noted: oral Example 7 0.027 mmol/kg in propylene glycol, released Example 6 assayed. The protocol: The release of a compound of Formula I from an orally administered prodrug of Formula II was monitored in rats. The compound of Example 7 was made up in a propylene glycol vehicle and orally administered to paired fasted male Sprague Dawley rats at a dose corresponding to 0.027 mmol/kg. At the indicated time intervals, 0.2 ml blood was collected from a catheter implanted in the […] jugularis, centrifuged and frozen for later analysis. The released drug of Formula I (Example 6) was assayed by HPLC.

Data set [2] is described as follows: Bioavailability in different species, plasma level of mother compound (Biological Example 7). As to conditions: rat, Example 12 0.026 mmol/kg, acacia/Tween. Type of data set: in vivo. The protocol:
Each substance was administered to duplicate rats.
(§1) A prodrug of the invention of Formula II (Example 12) was administered at the same dose (0.026 mmol/kg) and in the same vehicle (10% acacia and 1% Tween in water) to rats and cynomolgus monkeys. Plasma levels of the mother compound of Formula I (Example 10) was measured as a function of time.
The corresponding data for the compound of Example 28 (rat: acacia/Tween, monkey:propylene glycol) are shown in Table 5A: […]

Test in data set [3]: as above
To be noted: monkey, Example 12 0.026 mmol/kg, acacia/Tween. The data set is classed as in vivo, cynomolgus monkeys. The protocol: Monkeys were fasted for 12 hours prior to oral administration but had free access to water. The test compound was delivered via an infant nasogastric feeding tube. After 6 hours the monkeys received an apple.
as §1

The conditions of data set [4]: for plasma level of mother compound: 0.027 mmol/kg.
Experimental: The rats used in pharmacokinetic examples were male Sprague-Dawley, with a weight about 200–250 g. The rats were fasted for at least 16 hours before the experiment, but had free access to water. The day before the experiment the rats were anaesthetized using a mixture of Efrane®, laughing gas and oxygen. A catheter was introduced into the vena jugularis. On the day of the experiment the weights of the rats were noted. The animals were shortly anaesthesized before the oral dose was given or the iv dose injected into the back of the neck. Each substance was administered to duplicate rats.
Compounds were dissolved in DMSO for intravenous administration.
The blood samples were centrifuged infectious agents neutralised with 1% SDS/64°/20 min and plasma stored at −20° C.
Plasma samples are prepared as follows: 40–100 μl of plasma is mixed with an equal volume of acetonitrile (10 seconds, Vibrofex). The sample is centrifuged (2 min, 14000 RPM) and 30 μl of the supernantant is injected into an HPLC system, as follows.
The vehicle was 10% acacia and 1% Tween in water or propylene glycol (asterisked).
A further data set concerns HIV-1 IIIB. Briefly: Time to resistance, weekly passage in MT4 cells (Biological Example 2). Type of data set: cell-based. To be noted: growth of viral resistance against time, FIG. 1, versus closest Santa Fe compound. The protocol: 2×10^4 MT4 cells per well in a microtitre plate are infected with 5–10 TCID50 of HIV-1 IIIB. The compounds being tested are added at concentrations around ED50 using 8 duplicates per concentration. After 6 days of incubation the RT activity in 10 μl supernatent is measured.
The following procedure is followed at subsequent passages of the cultures once per week.: Virus produced at the concentration of test compound showing >50% of the RT activity of untreated infected cells (SIC, Starting Inhibitory Concentration) are passaged to fresh MT4 cells. 15 μl supernatent from each of the eight duplicates are transferred to cells without the test compound (control) and to cells with test compound at the same concentration, and additionally two respectively fivefold higher concentrations. (See Table 2 below)
When viral growth is permitted at the highest non-toxic concentration (5–40 μM), 2–4 parallel wells are collected and expanded to give material for sequence analysis and cross-wise resistance.
FIG. 1 plots the growth of viral resistance for a compound of the invention (Example 8) against time. Also plotted is the corresponding curve for the closest Santa Fe compound, mentioned above.

Data set [5] concerns the target T1, HIV reverse transcriptase (Human immunodeficiency virus type 1 group M subtype B, UniProt P04585).
T1 construct: made in house
Briefly: Binding kinetics by surface plasmon resonance (Biological Example 10). As to conditions: dissociation phase, 25° C., FIG. 3, versus prior art Santa Fe compound. An excerpt: The rate of association and dissociation of an NNRTI on the target enzyme can be directly assayed by surface plasmon resonance methodology, wherein reverse transcriptase is immobilized on the surface of a chip and the binding or dissociation of the putative inhibitor is monitored by observing the changes in refractive index caused by the concomitant increase or decrease in chip mass. A compound of the invention (Example 8) was compared to the closest prior art compound from Santa Fe, as depicted above. Experiments were performed on a BIACORE® 2000 (Biacore AB, Uppsala, Sweden), using BIAEVALUATION® software (ver 3.0) for evaluation of data. The binding of the small analyte (NNRTI) to the much larger enzyme results in binding responses in the range of 10–20 RU. […] During the dissociation phase there is insignificant change in bulk refractive index, thus the binding of the different substances have been evaluated during this phase. […]
Interaction with inhibitors: Stock solutions of inhibitors (1 mg/ml in DMSO) were dissolved in RT running buffer (10 mM Hepes pH 7.6; 4 mM MgCl2; 0.25 mM spermine; 40 mM KCl; 0.5% TRITON® X-100; 3% DMSO; 0.5% fetal calf serum) to a concentration of […]. Binding of substance to the RT was analysed by injection of […] of the diluted substance, the flow rate was […] and the temperature 25° C. […]
In general terms: SPR reads the build-up and loss of mass on a sensor chip optically.

The next data set deals with HIV. As to conditions: after only four weeks of therapy, virus isolated from patient serum; cited from earlier work.

Turning to `CCC(=O)c1ccc(F)c([C@H]2C[C@H]2NC(=O)Nc2ccc(C#N)cn2)c1OC(=O)c1cccc(N)c1` (relative stereo) [Example 7, (1R, 2R)-N-[cis-2-(2-(3-aminophenylcarbonyloxy)-6-fluoro-3-propionylphenyl)-cyclopropyl]-N′-(5-cyanopyrid-2-yl)-urea], the “plasma level of mother compound” value was 240 ng/mL and 350 ng/mL in data set [1] (30 min, individual rats); 180 ng/mL and 280 ng/mL in data set [1] (60 min); 130 ng/mL and 170 ng/mL in data set [1] (120 min); 70 ng/mL and 120 ng/mL in data set [1] (240 min); 50 ng/mL and 70 ng/mL in data set [1] (360 min).
Take `CCC(=O)c1ccc(F)c([C@@H]2C[C@@H]2NC(=O)Nc2ccc(Br)cn2)c1OC(=O)c1cccc(N)c1` (relative stereo) [Example 12, (1S, 2S)-N-[cis-2-(2-(3-aminophenylcarbonyloxy)-6-fluoro-3-propionylphenyl)cyclopropyl]-N′-(5-bromopyrid-2-yl)-urea]: the “plasma level of mother compound” value in data set [2] (30 min, mother compound Example 10) is 90 ng/mL and 50 ng/mL; in data set [2] (60 min) it was 100 ng/mL and 70 ng/mL; in data set [2] (120 min) it was 90 ng/mL and 80 ng/mL; in data set [2] (180 min) it was 80 ng/mL; in data set [2] (240 min), 60 ng/mL and 50 ng/mL; in data set [3] (45 min, mother compound Example 10), 80 ng/mL and 40 ng/mL. For the same molecule, the “plasma level of mother compound” value was 200 ng/mL and 260 ng/mL in data set [3] (90 min); 1000 ng/mL and 550 ng/mL in data set [3] (180 min); 720 ng/mL and 540 ng/mL in data set [3] (240 min); 380 ng/mL and 390 ng/mL in data set [3] (360 min); 130 ng/mL and 100 ng/mL in data set [3] (600 min); 30 ng/mL in data set [3] (24 h).
Consider `CCC(=O)c1ccc(F)c([C@@H]2C[C@@H]2NC(=O)Nc2ccc(C#N)cn2)c1OCOC(=O)c1ccc(O)cc1` (relative stereo) [Example 37, (1S, 2S)-N-[cis-2-(6-fluoro-2-O-3-propionylphenyl)-cyclopropyl]-N′-[2-(5-cyanopyridyl)]urea-O-methylene-4-hydroxybenzoate], for which the “plasma level of mother compound” value in data set [4] (propylene glycol (asterisked), 30 min) is 234 ng/mL and 137 ng/mL; in data set [4] (propylene glycol, 60 min), 273 ng/mL and 189 ng/mL; in data set [4] (propylene glycol, 120 min), 111 ng/mL and 133 ng/mL; in data set [4] (propylene glycol, 240 min) it was 56 ng/mL and 45 ng/mL; in data set [4] (propylene glycol, 360 min) it was 54 ng/mL and 56 ng/mL. In data set [4] (determined relative to the iv dose, rats), the absolute oral bioavailability is given as 28–33%.
As for `CCC(=O)c1ccc(F)c([C@@H]2C[C@@H]2NC(=O)Nc2ccc(C#N)cn2)c1O` (stereo in doubt) [Example 8, (1 S,2S)-N-(cis-2-(6-fluoro-2-hydroxy-3-propionoylphenyl)-cyclopropyl)-N′-(5-cyanopyrid-2-yl)-urea], the “rate of resistance development” value with HIV-1 IIIB is on record as “significantly slower rate of resistance development”. Also, the “dissociation rate from reverse transcriptase” value in data set [5] was “dissociating with the lowest rate”.
In the case of `Cc1ccnc2c1NC(=O)c1cccnc1N2C1CC1` [nevirapine], the “loss of sensitivity of patient virus to the drug versus virus from untreated patients” value with HIV was 100 fold.
